The test system of one test is TFE3 and FLCN. As to the kind of experiment: TFE3 and FLCN subcellular localization upon dimerizer-induced mitophagy in U2OS cells. It is filed as cell-based. As to conditions: 25 nM, 3 hours; control KO, RB1CC1 KO, GABARAP triple KO U2OS cells; FIG. 50. Here is the method: (§1) For high content image acquisition, cells were plated in 96-well glass bottom, black wall plates (Greiner, #655892) or 384-well polystyrene, black-wall plates (Greiner, #781091) and grown overnight to 70% confluency. Treatments were performed as indicated. Cells were fixed for 10 minutes in either −20° C. methanol or 4% paraformaldehyde (Electron Microscopy Sciences). Cells were blocked and permeabilized in a solution containing 1:1 Odyssey blocking buffer (LiCor)/PBS (Invitrogen) with 0.1% Triton X-100 (Sigma) and 1% normal goat serum (Invitrogen) for 1 hour at room temperature. Primary antibodies were added overnight at 4° C. in blocking buffer described above. After washing plates with PBS using an EL-406 plate washer (BioTek), secondary Alexa-conjugated antibodies (Life Technologies) were diluted 1:1,000 in blocking solution and applied for 1 hour at room temperature. Cells were then washed again in PBS as described and imaged using an INCELL 6500 high-content imager (GE Healthcare). Images were analyzed using the GE InCarta software.

Test [1] deals with LC3. Briefly: LC3 lipidation (LC3-I to LC3-II conversion), Western blot and cell images. It is filed as cell-based. As to conditions: for LC3 lipidation (conversion of LC3 "I" form to "II" form): wild type (WT) and autophagy-deficient cells, FIGS. 1, 2, 3. The text has this: (§2) For preparation of total cell lysates, cells were lysed in RIPA buffer (#9806, Cell Signaling Technology) supplemented with sodium dodecyl sulfate to 1% final concentration (SDS, Boston BioProducts) and protease inhibitor tablets (Complete EDTA-free, Roche). Lysates were homogenized by sequential passaging through Qiashredder columns (Qiagen), and protein levels were quantified by Lowry DC protein assay (Bio-Rad). Proteins were denatured in 6×Laemmli SDS loading buffer (Boston BioProducts) at 100° C. for 5 minutes.
(§3) Equivalent amounts of total proteins were separated on Tris-Glycine TGx SDS-PAGE gels (Bio-Rad) for Western blotting. Proteins were transferred to nitrocellulose using standard methods and membranes were blocked in 5% non-fat dry milk (Cell Signaling Technology) in TBS with 0.2% Tween-20 (Boston BioProducts). Primary antibodies were diluted in 5% bovine serum albumin (BSA, Cell Signaling Technology) in TBS with 0.2% Tween-20 and were incubated with membranes at 4° C. overnight. HRP-conjugated secondary antibodies were diluted in blocking solution (1:20,000, ThermoFisher) and incubated with membranes at room temperature for 1 hour. Western blots were developed using West PicoPLUS Super Signal ECL reagents (Pierce) and film (GEHealthcare).

Test [2] concerns LC3. Briefly: LC3 puncta co-localized with LAMP1 in primary bone marrow-derived macrophages, wild-type vs ATG16L1 K490A knock-in. The test is classed as cell-based, mouse. Particulars: FIG. 12. Here is the method: For LC3 and LAMP1 staining in primary BMDMs, cells were plated on 18 mm coverslips. The next day, cells were treated as indicated and cells were fixed in ice cold methanol as described above. Cells were then blocked in PBS+5% BSA for 1 hour before addition of primary antibodies (anti-LC3A/B, CST #4108, 1:100; anti-LAMP1, BD #555798, 1:100) and diluted in blocking buffer overnight at 4° C. Cells were then washed and incubated with fluorescent secondary antibodies in blocking buffer for 1 hour at room temperature. Cells were washed in PBS incubated with DAPI and mounted on glass slides using Prolong anti-fade reagent (Life Technologies).
The K490A point mutation was introduced into C57/BL6 mice via direct zygote injection of CRISPR/Cas9 reagents. Briefly, a single stranded guide sequence was designed and synthesized along with a tracrRNA from Dhamacon. A repair donor single stranded DNA sequence was designed to introduce the K490A point mutation and mutate the PAM sequence to stop re-targeting of the Cas9 complex to already edited DNA. These reagents, along with recombinant Cas9, were injected into mouse zygotes. Pups born from these injections were genotyped via Transnetyx and heterozogous founders were bred with wild-type mice to obtain pure heterozygote animals. Further breeding yielded mice homozygous for the K490A mutation. […]

The subject of test [3] is TFEB. Briefly: TFEB activation (Western blot / nuclear accumulation) in cell lines. It is filed as cell-based. As to conditions: for TFEB activation under co-treatment with BafA1: FIG. 16.
Excerpt: as §2, §3, §1
A general note: A western blot detects proteins with antibodies after separation by electrophoresis.

Test [4] concerns TFEB. Briefly: TFEB activation in ATG16L1 KO mouse macrophages reconstituted with ATG16L1 WD40 point mutants. The test is classed as cell-based. Particulars: immortalized ATG16L1 KO mouse macrophages; FIG. 21. Here is the method: For endogenous TFEB staining in mouse macrophages, cells were fixed in 3.7% formaldehyde for 15 minutes at room temperature, washed in PBS and permeabilized in 0.2% triton/PBS for 5 minutes. Cells were then processed as above for primary (anti-TFEB, Bethyl Laboratories, #A303-673A, 1:200) and secondary antibodies. Images were acquired using a Confocal Zeiss LSM 780 microscope (Carl Zeiss Ltd) equipped with a 40×oil immersion 1.40 numerical aperture (NA) objective using Zen software (Carl Zeiss Ltd). Analysis was performed using Image J. For nuclear cytosol quantification, the ratio of fluorescent intensity of TFEB within the DAPI was mask versus the cytosol of 30 cells across 2 independent experiments were measured.

Another test has as its system GPNMB. As to the kind of experiment: GPNMB protein levels (TFEB target gene) upon chronic treatment, Western blot. It is filed as cell-based. Particulars: FNIP1/2 DKO cells reconstituted with FNIP1; FIG. 44D.
Excerpt: as §3, with “For preparation of total cell lysates, cells were lysed in RIPA buffer (#9806, Cell Signaling Technology) supplemented with sodium dodecyl sulfate to 1% final concentration (SDS, Boston BioProducts) and protease inhibitor tablets (Complete EDTA-free, Roche). Lysates were homogenized by sequential passaging through Qiashredder columns (Qiagen), and protein levels were quantified by Lowry DC protein assay (Bio-Rad). Proteins were denatured in 6×Laemmli SDS loading buffer (Boston BioProducts) at 100° C. for 5 minutes. Equivalent” for “Equivalent”

Test [5] deals with U2OS cells expressing mKeima, FRB-p62, and FKBP-FIS1. As to the kind of experiment: Mitophagy efficiency, Keima fluorescence shift assay in U2OS cells. As to conditions: dimerizer-induced mitophagy; FIG. 49. It is filed as cell-based.

Turning to `CO[C@H]1[C@@H](O)[C@H](C)C[C@H](C)/C=C/C=C/C=C(\C)[C@@H](c2c[nH]c3c(C)cccc23)C[C@@H]2CC[C@@H](C)[C@@](O)(O2)C(=O)C(=O)N2CCCC[C@H]2C(=O)O[C@H]([C@H](C)C[C@@H]2CC[C@@H](O)[C@H](OC)C2)C[C@H](O)[C@H](C)/C=C(\C)[C@H]1O` [AP21967], in the test on TFE3 and FLCN, the “TFE3 nuclear localization and FLCN punctate structures” value is “seen in CTRL and RBICC1_KO (autophagy-deficient) cells but not in GABARAP_TKO cells”.

In the case of `COc1ccc(-c2ccc3c(N4CCOC[C@@H]4C)nc(N4CCOC[C@@H]4C)nc3n2)cc1CO` [AZD8055], the “LC3 lipidation: dependence on VPS34 inhibition and Bafilomycin A1 co-treatment” value with LC3 [1] (FIG. 4) was “induced conversion of LC3 in a manner sensitive to VPS34 inhibition and was potentiated with the vATPase inhibitor Bafilomycin A1 (BafA1)”. Also, the “LC3 lipidation (conversion of LC3 "I" form to "II" form)” value in the test with LC3 [1] is “able to regulate LC3 lipidation in WT but not autophagy-deficient cells”. Further, the “LC3 puncta formation co-localized with LAMP1, wild-type vs ATG16L1^K490A cells” value in the test on LC3 [2] is given as “sensitivity to the ATG16L1^K490A mutation was not observed”. For the same compound, in the test on TFEB [3] (FIG. 44D), the “TFEB activation (with GPNMB readout)” value is “robust TFEB activation”. Also, the “TFEB nuclear accumulation / activation with SopF expression” value in the test with TFEB [3] (SopF expression vs SopF negative controls, FIG. 15) was “did not impact TFEB activation”. In the test on TFEB [3], the “TFEB activation under co-treatment with BafA1” value is listed as “did not prevent TFEB activation”. The “TFEB activation in macrophages with ATG16L1-F467A or ATG16L1-K490A” value with TFEB [4] is given as “activated TFEB irrespective of ATG16L1 status”. In the test on GPNMB, the GPNMB protein levels entry was “largely suppressed”.

Take `CO/C1=C\C(C)=C\[C@@H](C)[C@@H](O)[C@@H](C)C/C(C)=C/C=C/[C@H](OC)[C@@H]([C@@H](C)[C@@H](O)[C@H](C)[C@@]2(O)C[C@@H](O)[C@H](C)[C@@H](C(C)C)O2)OC1=O` [BafA1, Bafilomycin A1]: in test [5], the “Keima signal (mitophagy) under co-treatment” value was “blocked the Keima signal”.

For the compound `Cc1ccc(S(=O)(=O)Nc2ccccc2N2CCCCC2)s1` [MK6-83], in the test with LC3 [1], the “LC3 lipidation (conversion of LC3 "I" form to "II" form)” value was “rapid conversion of LC3 from its cytoplasmic “I” form to the lipidated, punctate “II” form in both wild type (WT) and autophagy-deficient cells”. Further, the “TFEB activation under co-treatment with BafA1” value in the test on TFEB [3] is given as “prevented”.

Regarding `CC1CC(C)(C)N(C(=O)CN2C(=O)c3ccccc3C2=O)c2ccccc21` (stereo not drawn) [ML-SA1], the “LC3 lipidation (conversion of LC3 "I" form to "II" form)” value in the test with LC3 [1] was “rapid conversion of LC3 from its cytoplasmic “I” form to the lipidated, punctate “II” form in both wild type (WT) and autophagy-deficient cells”. The “LC3 puncta formation co-localized with LAMP1, wild-type vs ATG16L1^K490A cells” value in the test on LC3 [2] is “did not occur in ATG16L1^K490A cells”. Besides, the “TFEB activation in macrophages with ATG16L1-F467A or ATG16L1-K490A” value in the test on TFEB [4] is listed as “did not exhibit TFEB activation”.

Values taken from patent publication US20230272392A1, “METHODS OF TFEB ACTIVATION AND LYSOSOMAL BIOGENESIS AND COMPOSITIONS THEREFOR” (Casma Therapeutics, Inc., priority 2020, published 2023).
